Data published in patent US20230339891A1, “URACIL DERIVATIVES AS MER-AXL INHIBITORS” (BRISTOL-MYERS SQUIBB COMPANY, priority 2018, published 2023).

Assays:
GST-MERTK 578-872 = GST-MERTK 578-872 (Homo sapiens (Human), UniProt Q12866); assay: MERTK kinase homogeneous time resolved fluorescence (HTRF) binding assay; details: 1 nM kinase, fluorescein-labeled kinase tracer at Kd, 60 minutes at room temperature; read-out: Mer HTRF IC50
Description: (§1) MERTK, AXL, TYRO3 Kinase Homogeneous Time Resolved Fluorescence (HTRF) Assay
(§2) Assays were performed in black, flat-bottom, 1536-well plates. The reactions were incubated at room temperature for 60 minutes, following which the HTRF signals, ratio of fluorescence intensities at emission wavelengths for fluorescein acceptor (520 nm) and terbium donor (495 nm), the 520/495 ratio, were measured on the Envision Plate reader. Inhibition data were calculated from the 520/495 ratio generated by the no protein control reactions for 100% inhibition and vehicle-only reactions for 0% inhibition, and dose response curves generated to determine the concentration required for inhibiting 50% of the HTRF signal (IC50). Compounds were dissolved at 10 mM in dimethylsulfoxide (DMSO) and evaluated at eleven concentrations.

HIS-AXL 473-End = HIS-AXL 473-End (Homo sapiens (Human), UniProt P30530); assay: AXL kinase homogeneous time resolved fluorescence (HTRF) binding assay; details: 1 nM kinase, fluorescein-labeled kinase tracer at Kd, 60 minutes at room temperature
Description: as §1, §2

Sequence of GST-MERTK 578-872 (Q12866 578-872): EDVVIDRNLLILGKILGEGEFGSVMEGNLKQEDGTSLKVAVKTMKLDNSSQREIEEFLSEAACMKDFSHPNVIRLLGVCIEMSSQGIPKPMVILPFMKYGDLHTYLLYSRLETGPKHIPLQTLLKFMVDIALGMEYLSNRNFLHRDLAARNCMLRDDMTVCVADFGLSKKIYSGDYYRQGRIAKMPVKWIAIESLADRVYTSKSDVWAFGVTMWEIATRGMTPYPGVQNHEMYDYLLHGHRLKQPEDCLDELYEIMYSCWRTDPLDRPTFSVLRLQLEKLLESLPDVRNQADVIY
Sequence of HIS-AXL 473-End (P30530 473-894): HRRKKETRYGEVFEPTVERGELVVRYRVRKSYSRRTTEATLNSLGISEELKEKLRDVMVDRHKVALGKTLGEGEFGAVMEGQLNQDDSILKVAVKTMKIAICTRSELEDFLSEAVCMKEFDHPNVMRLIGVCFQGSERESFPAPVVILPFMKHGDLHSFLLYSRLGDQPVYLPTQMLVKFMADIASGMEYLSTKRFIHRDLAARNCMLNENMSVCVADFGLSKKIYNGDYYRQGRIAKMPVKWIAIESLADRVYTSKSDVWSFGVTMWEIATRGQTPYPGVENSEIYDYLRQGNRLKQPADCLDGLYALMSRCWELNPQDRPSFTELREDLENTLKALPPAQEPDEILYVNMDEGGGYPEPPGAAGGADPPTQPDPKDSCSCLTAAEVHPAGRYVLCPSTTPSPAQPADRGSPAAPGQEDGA

## CC(C)n1cc(C(=O)Nc2ccc(Oc3ccnc(Nc4ccc(C#N)cn4)c3)c(F)c2)c(=O)n(-c2ccc(F)cc2)c1=O [Example 1, N-[4-({2-[(5-cyanopyridin-2-yl)amino]pyridin-4-yl}oxy)-3-fluorophenyl]-3-(4-fluorophenyl)-2,4-dioxo-1-(propan-2-yl)-1,2,3,4-tetrahydropyrimidine-5-carboxamide]
GST-MERTK 578-872
  IC50: 14 nM
HIS-AXL 473-End
  IC50: 2.9 nM

## CC(C)n1cc(C(=O)Nc2ccc(Oc3ccnc(Nc4ncc(Cl)cc4F)c3)c(F)c2)c(=O)n(-c2ccc(F)cc2)c1=O [Example 3]
GST-MERTK 578-872
  IC50: 59 nM
HIS-AXL 473-End
  IC50: 1730 nM

## Cc1ccc(Nc2cc(Oc3ccc(NC(=O)c4cn(C(C)C)c(=O)n(-c5ccc(F)cc5)c4=O)cc3F)ccn2)nc1 [Example 4]
GST-MERTK 578-872
  IC50: 32 nM
HIS-AXL 473-End
  IC50: 4.4 nM

## CCc1ccc(Nc2cc(Oc3ccc(NC(=O)c4cn(C(C)C)c(=O)n(-c5ccc(F)cc5)c4=O)cc3F)ccn2)nc1 [Example 5]
GST-MERTK 578-872
  IC50: 56 nM
HIS-AXL 473-End
  IC50: 24 nM

## Cc1cnc(Nc2cc(Oc3ccc(NC(=O)c4cn(C(C)C)c(=O)n(-c5ccc(F)cc5)c4=O)cc3F)ccn2)cc1C [Example 6]
GST-MERTK 578-872
  IC50: 37 nM
HIS-AXL 473-End
  IC50: 7.9 nM

## Cc1ccc(Nc2cc(Oc3ccc(NC(=O)c4cn(C(C)C)c(=O)n(-c5ccc(F)cc5)c4=O)cc3F)ccn2)nc1Cl [Example 7]
GST-MERTK 578-872
  IC50: 82 nM
HIS-AXL 473-End
  IC50: 21 nM

## CC(C)n1cc(C(=O)Nc2ccc(Oc3ccnc(Nc4cccc(C(F)(F)F)n4)c3)c(F)c2)c(=O)n(-c2ccc(F)cc2)c1=O [Example 9]
GST-MERTK 578-872
  IC50: 16 nM
HIS-AXL 473-End
  IC50: 29 nM

## CC(C)n1cc(C(=O)Nc2ccc(Oc3ccnc(Nc4ccc(C(F)F)cn4)c3)c(F)c2)c(=O)n(-c2ccc(F)cc2)c1=O [Example 10]
GST-MERTK 578-872
  IC50: 43 nM
HIS-AXL 473-End
  IC50: 15 nM

## CC(C)n1cc(C(=O)Nc2ccc(Oc3ccnc(Nc4ccc(OC(F)(F)F)cn4)c3)c(F)c2)c(=O)n(-c2ccc(F)cc2)c1=O [Example 11]
GST-MERTK 578-872
  IC50: 128 nM
HIS-AXL 473-End
  IC50: 53 nM

## CC(C)n1cc(C(=O)Nc2ccc(Oc3ccnc(Nc4ncc(C(F)(F)F)cc4F)c3)c(F)c2)c(=O)n(-c2ccc(F)cc2)c1=O [Example 12]
GST-MERTK 578-872
  IC50: 228 nM
HIS-AXL 473-End
  IC50: 55 nM

## COC(=O)c1ccc(Nc2cc(Oc3ccc(NC(=O)c4cn(C(C)C)c(=O)n(-c5ccc(F)cc5)c4=O)cc3F)ccn2)nc1 [Example 14, Methyl 6-((4-(2-fluoro-4-(3-(4-fluorophenyl)-1-isopropyl-2,4-dioxo-1,2,3,4-tetrahydropyrimidine-5-carboxamido)phenoxy)pyridin-2-yl)amino)nicotinate]
GST-MERTK 578-872
  IC50: 11 nM
HIS-AXL 473-End
  IC50: 3.6 nM

## CC(C)n1cc(C(=O)Nc2ccc(Oc3ccnc(Nc4ccc(C(C)(C)O)cn4)c3)c(F)c2)c(=O)n(-c2ccc(F)cc2)c1=O [Example 15]
GST-MERTK 578-872
  IC50: 8 nM
HIS-AXL 473-End
  IC50: 1.7 nM

## CC(C)n1cc(C(=O)Nc2ccc(Oc3ccnc(Nc4ccc(C(N)=O)cn4)c3)c(F)c2)c(=O)n(-c2ccc(F)cc2)c1=O [Example 16]
GST-MERTK 578-872
  IC50: 5.8 nM
HIS-AXL 473-End
  IC50: 1.1 nM

## CC(C)n1cc(C(=O)Nc2ccc(Oc3ccnc(Nc4ccc(C(=O)N(C)C)cn4)c3)c(F)c2)c(=O)n(-c2ccc(F)cc2)c1=O [Example 17]
GST-MERTK 578-872
  IC50: 1.9 nM
HIS-AXL 473-End
  IC50: 2.7 nM

## CC(C)n1cc(C(=O)Nc2ccc(Oc3ccnc(Nc4ccc(S(C)(=O)=O)cn4)c3)c(F)c2)c(=O)n(-c2ccc(F)cc2)c1=O [Example 18]
GST-MERTK 578-872
  IC50: 18 nM
HIS-AXL 473-End
  IC50: 11 nM

## CC(C)n1cc(C(=O)Nc2ccc(Oc3ccnc(Nc4ccc(S(N)(=O)=O)cn4)c3)c(F)c2)c(=O)n(-c2ccc(F)cc2)c1=O [Example 19]
GST-MERTK 578-872
  IC50: 4.4 nM
HIS-AXL 473-End
  IC50: 1.6 nM

## CC(C)n1cc(C(=O)Nc2ccc(Oc3ccnc(Nc4ccc(S(=O)(=O)N(C)C)cn4)c3)c(F)c2)c(=O)n(-c2ccc(F)cc2)c1=O [Example 20]
GST-MERTK 578-872
  IC50: 12 nM
HIS-AXL 473-End
  IC50: 4.7 nM

## CC(C)n1cc(C(=O)Nc2ccc(Oc3ccnc(Nc4ccc(N5CCOCC5)cn4)c3)c(F)c2)c(=O)n(-c2ccc(F)cc2)c1=O [Example 21]
GST-MERTK 578-872
  IC50: 164 nM
HIS-AXL 473-End
  IC50: 39 nM

## CC(C)n1cc(C(=O)Nc2ccc(Oc3ccnc(Nc4cc(N5CCOCC5)ccn4)c3)c(F)c2)c(=O)n(-c2ccc(F)cc2)c1=O [Example 22]
GST-MERTK 578-872
  IC50: 49 nM
HIS-AXL 473-End
  IC50: 8.9 nM

## CC(C)n1cc(C(=O)Nc2ccc(Oc3ccnc(Nc4ccc(-c5nccs5)cn4)c3)c(F)c2)c(=O)n(-c2ccc(F)cc2)c1=O [Example 23]
GST-MERTK 578-872
  IC50: 55 nM
HIS-AXL 473-End
  IC50: 31 nM

## CC(C)n1cc(C(=O)Nc2ccc(Oc3ccnc(Nc4ccc(-n5ccnc5)cn4)c3)c(F)c2)c(=O)n(-c2ccc(F)cc2)c1=O [Example 24]
GST-MERTK 578-872
  IC50: 12 nM
HIS-AXL 473-End
  IC50: 5.6 nM

## CC(C)n1cc(C(=O)Nc2ccc(Oc3ccnc(Nc4ccc5cc[nH]c5n4)c3)c(F)c2)c(=O)n(-c2ccc(F)cc2)c1=O [Example 25]
GST-MERTK 578-872
  IC50: 13 nM
HIS-AXL 473-End
  IC50: 3.6 nM

## CC(C)n1cc(C(=O)Nc2ccc(Oc3ccnc(Nc4cnc(C#N)cn4)c3)c(F)c2)c(=O)n(-c2ccc(F)cc2)c1=O [Example 26]
GST-MERTK 578-872
  IC50: 60 nM
HIS-AXL 473-End
  IC50: 18 nM

## Cc1cnc(Nc2cc(Oc3ccc(NC(=O)c4cn(C(C)C)c(=O)n(-c5ccc(F)cc5)c4=O)cc3F)ccn2)cn1 [Example 27]
GST-MERTK 578-872
  IC50: 19 nM
HIS-AXL 473-End
  IC50: 6.8 nM

## CCc1cnc(Nc2cc(Oc3ccc(NC(=O)c4cn(C(C)C)c(=O)n(-c5ccc(F)cc5)c4=O)cc3F)ccn2)cn1 [Example 28]
GST-MERTK 578-872
  IC50: 20 nM
HIS-AXL 473-End
  IC50: 7.4 nM

## CCOc1cnc(Nc2cc(Oc3ccc(NC(=O)c4cn(C(C)C)c(=O)n(-c5ccc(F)cc5)c4=O)cc3F)ccn2)cn1 [Example 29]
GST-MERTK 578-872
  IC50: 182 nM
HIS-AXL 473-End
  IC50: 7.2 nM

## CC(C)n1cc(C(=O)Nc2ccc(Oc3ccnc(Nc4ncc(C(F)(F)F)cn4)c3)c(F)c2)c(=O)n(-c2ccc(F)cc2)c1=O [Example 30]
GST-MERTK 578-872
  IC50: 165 nM
HIS-AXL 473-End
  IC50: 48 nM

## Cc1cnc(Nc2cc(Oc3ccc(NC(=O)c4cn(C(C)C)c(=O)n(-c5ccc(F)cc5)c4=O)cc3F)ccn2)nc1 [Example 31]
GST-MERTK 578-872
  IC50: 158 nM
HIS-AXL 473-End
  IC50: 7.5 nM

## CCc1cnc(Nc2cc(Oc3ccc(NC(=O)c4cn(C(C)C)c(=O)n(-c5ccc(F)cc5)c4=O)cc3F)ccn2)nc1 [Example 32]
GST-MERTK 578-872
  IC50: 342 nM
HIS-AXL 473-End
  IC50: 0.9 nM

## COC(=O)Cc1csc(Nc2cc(Oc3ccc(NC(=O)c4cn(C(C)C)c(=O)n(-c5ccc(F)cc5)c4=O)cc3F)ccn2)n1 [Example 33]
GST-MERTK 578-872
  IC50: 67 nM
HIS-AXL 473-End
  IC50: 19 nM

## CC(C)n1cc(C(=O)Nc2ccc(Oc3ccnc(Nc4ccn(C(F)F)n4)c3)c(F)c2)c(=O)n(-c2ccc(F)cc2)c1=O [Example 35, N-{4-[(2-{[1-(Difluoromethyl)-1H-pyrazol-3-yl]amino}pyridin-4-yl)oxy]-3-fluorophenyl}-3-(4-fluorophenyl)-2,4-dioxo-1-(propan-2-yl)-1,2,3,4-tetrahydropyrimidine-5-carboxamide]
GST-MERTK 578-872
  IC50: 4.3 nM
HIS-AXL 473-End
  IC50: 0.8 nM

## O=C(Nc1ccc(Oc2ccnc(Nc3ccc(Cl)cn3)c2)c(F)c1)c1cn(C2CC2)c(=O)n(-c2ccc(F)cc2)c1=O [Example 36, N-[4-({2-[(5-chloropyridin-2-yl)amino]pyridin-4-yl}oxy)-3-fluorophenyl]-1-cyclopropyl-3-(4-fluorophenyl)-2,4-dioxo-1,2,3,4-tetrahydropyrimidine-5-carboxamide]
GST-MERTK 578-872
  IC50: 38 nM
HIS-AXL 473-End
  IC50: 11 nM

## CC(C)n1cc(C(=O)Nc2ccc(Oc3ccnc(Nc4ccc(S(C)(=O)=O)cn4)c3)c(F)c2)c(=O)n(-c2ccc(F)cn2)c1=O [Example 37, N-[3-Fluoro-4-({2-[(5-methanesulfonylpyridin-2-yl)amino]pyridin-4-yl}oxy)phenyl]-3-(5-fluoropyridin-2-yl)-2,4-dioxo-1-(propan-2-yl)-1,2,3,4-tetrahydropyrimidine-5-carboxamide]
GST-MERTK 578-872
  IC50: 14 nM
HIS-AXL 473-End
  IC50: 2.6 nM

## Cn1cc(C(=O)Nc2ccc(Oc3ccnc(Nc4ccc(S(C)(=O)=O)cn4)c3)c(F)c2)c(=O)n(-c2ccc(F)cc2)c1=O [Example 38]
GST-MERTK 578-872
  IC50: 16 nM
HIS-AXL 473-End
  IC50: 3.5 nM

## CN(C)S(=O)(=O)c1ccc(Nc2cc(Oc3ccc(NC(=O)c4cn(C5CC5)c(=O)n(-c5ccc(F)cc5)c4=O)cc3F)ccn2)nc1 [Example 40, 1-Cyclopropyl-N-{4-[(2-{[5-(dimethylsulfamoyl)pyridin-2-yl]amino}pyridin-4-yl)oxy]-3-fluorophenyl}-3-(4-fluorophenyl)-2,4-dioxo-1,2,3,4-tetrahydropyrimidine-5-carboxamide]
GST-MERTK 578-872
  IC50: 11 nM
HIS-AXL 473-End
  IC50: 3.8 nM

## C[C@H](CO)n1cc(C(=O)Nc2ccc(Oc3ccnc(Nc4ccc(S(=O)(=O)N(C)C)cn4)c3)c(F)c2)c(=O)n(-c2ccc(F)cc2)c1=O [Example 55]
GST-MERTK 578-872
  IC50: 6.7 nM

## C[C@H](CO)n1cc(C(=O)Nc2ccc(Oc3ccnc(Nc4ccc(S(=O)(=O)N(C)C)cn4)c3)c(F)c2)c(=O)n(-c2ccc(F)cc2)c1=O [Example 56]
GST-MERTK 578-872
  IC50: 17 nM

## CC(C)NC(=O)c1ccc(Nc2cc(Oc3ccc(NC(=O)c4cn(C(C)C)c(=O)n(-c5ccc(F)cc5)c4=O)cc3F)ccn2)nc1 [Example 94]
GST-MERTK 578-872
  IC50: 3.5 nM

## CC(C)n1cc(C(=O)Nc2ccc(Oc3ccnc(Nc4ccnc(N5CCCC5)n4)c3)c(F)c2)c(=O)n(CC2CC2)c1=O [Example 110]
GST-MERTK 578-872
  IC50: 1.6 nM

## CC(C)n1cc(C(=O)Nc2ccc(Oc3ccnc(Nc4ccnc(N5CCCC5)n4)c3)c(F)c2)c(=O)n(CC2CCCCC2)c1=O [Example 111]
GST-MERTK 578-872
  IC50: 14 nM

## COC(=O)N1CCN(c2nc(Nc3cc(Oc4ccc(NC(=O)c5cn(C(C)C)c(=O)n(Cc6ccccc6)c5=O)cc4F)ccn3)ccc2C#N)CC1 [Example 130]
GST-MERTK 578-872
  IC50: 7.1 nM

## CC(C)n1cc(C(=O)Nc2ccc(Oc3ccnc(Nc4ccc(C#N)c(N5CCC(O)(C(F)(F)F)CC5)n4)c3)c(F)c2)c(=O)n(Cc2ccccc2)c1=O [Example 132]
GST-MERTK 578-872
  IC50: 12 nM
